Data on 17 compounds can be found in PubChem BioAssay (NCI).

Test systems include SNB-19 CNS; SK-MEL-5 melanoma; T-47D breast; EKVX NSCLC; SF-295 CNS; OVCAR-5 ovarian; HT29 colon; HL-60(TB) leukemia; K-562 leukemia.
Experiment in all cases: DTP human tumour cell line panel, 48 h

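All cell lines were grown in 96-well plates and treated with compound for 48 hours. TGI is the concentration that stops growth completely.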

Take `CC(C)[C@H](NC(=O)OCc1ccccc1)C(=O)N[C@H](/C=C/C(=O)OC(C)(C)C)CO`: the TGI with SNB-19 CNS, in the experiment on SK-MEL-5 melanoma, in the experiment with T-47D breast, with EKVX NSCLC, with SF-295 CNS and with OVCAR-5 ovarian was more than 100 µM each time. Besides, the TGI in the experiment on HT29 colon and in the experiment on HL-60(TB) leukemia was more than 100 µM each time.
In the case of `COc1ccc(-c2cc(-c3ccc(Nc4ccnc5cc(C(F)(F)F)ccc45)cc3)nc(N)c2C#N)c2ccccc12`, the TGI with SNB-19 CNS, in the experiment on SK-MEL-5 melanoma, in the experiment with T-47D breast, in the experiment with EKVX NSCLC, in the experiment with SF-295 CNS and in the experiment on OVCAR-5 ovarian was more than 100 µM each time. In addition, the TGI with HL-60(TB) leukemia is more than 100 µM.
Turning to `CCOC(=O)c1sc2nc(SC)nc3c2c1NCN3c1ccccc1Cl`, the TGI is more than 100 µM with SNB-19 CNS; more than 100 µM with SK-MEL-5 melanoma; 60.3 µM with T-47D breast; more than 100 µM with SF-295 CNS; more than 100 µM in the experiment with OVCAR-5 ovarian; more than 100 µM with K-562 leukemia. In the experiment on HT29 colon, this compound came in with a TGI of more than 100 µM.
Turning to `CCCCSC1=N/C(=C\c2ccccc2O)C(Cl)=N1`, the TGI in the experiment with SNB-19 CNS, in the experiment with T-47D breast, in the experiment on EKVX NSCLC, in the experiment on SF-295 CNS, in the experiment with OVCAR-5 ovarian and with HT29 colon was more than 100 µM each time. Further, the TGI in the experiment on HL-60(TB) leukemia is more than 100 µM.
As to `CC1=C(C(=O)OC(C)(C)C)C(c2ccc([N+](=O)[O-])cc2)C(C(=O)OC(C)(C)C)=C(C)N1`, the total growth inhibition concentration (TGI) with SNB-19 CNS was 75.8 µM; with SK-MEL-5 melanoma it was 32.9 µM; in the experiment with T-47D breast it was 33.4 µM; in the experiment with EKVX NSCLC, 38.4 µM; in the experiment on SF-295 CNS, 46.2 µM; in the experiment on OVCAR-5 ovarian, 34.9 µM. For the same compound, the TGI turned out to be 54 µM in the experiment on K-562 leukemia and 48.8 µM in the experiment with HT29 colon.
Take `N#Cc1c(N)n(-c2nc3ccccc3s2)c(=O)c2cc([N+](=O)[O-])ccc12`: the TGI is more than 77.1 µM in the experiment on SNB-19 CNS; more than 100 µM in the experiment on T-47D breast; more than 56.3 µM in the experiment with EKVX NSCLC; more than 64.9 µM in the experiment with SF-295 CNS; more than 79 µM with OVCAR-5 ovarian; 38.6 µM in the experiment with K-562 leukemia. Further, the TGI in the experiment with HT29 colon stood at 14.3 µM; with HL-60(TB) leukemia, 24.9 µM.
Turning to `CC(C)=C[C@@H]1C[C@H](C)[C@H]2CC[C@H](C)[C@H]3C(=O)C(O)=C(C)C(=O)[C@]123`, the TGI in the experiment with SNB-19 CNS, with SK-MEL-5 melanoma, with EKVX NSCLC, in the experiment on SF-295 CNS, in the experiment with OVCAR-5 ovarian and with K-562 leukemia was more than 100 µM throughout. For the same compound, the TGI in the experiment with HT29 colon and in the experiment on HL-60(TB) leukemia was more than 100 µM each time.
Turning to `FC(F)(Sc1nc2ccccc2[nH]1)c1nc2ccccc2o1`, the TGI in the experiment on SK-MEL-5 melanoma, with T-47D breast, in the experiment on SF-295 CNS, in the experiment with OVCAR-5 ovarian, with K-562 leukemia and in the experiment with HT29 colon was more than 100 µM throughout.
In the case of `COc1ccc2c(C=O)c3n(c(=O)c2c1OC)CCc1cc2c(cc1-3)OCO2`, the TGI in the experiment on SNB-19 CNS, in the experiment on SK-MEL-5 melanoma, in the experiment with T-47D breast, with EKVX NSCLC, in the experiment with SF-295 CNS and in the experiment on OVCAR-5 ovarian was more than 100 µM each time. The TGI in the experiment on HT29 colon and in the experiment with HL-60(TB) leukemia was more than 100 µM in each case.
Take `CC(=O)Nc1ccc(C(=O)NN2C(=O)CSC2c2ccccc2)cc1` (stereo not drawn): the TGI in the experiment with SNB-19 CNS, in the experiment on SK-MEL-5 melanoma, with T-47D breast, in the experiment on EKVX NSCLC, in the experiment on SF-295 CNS and in the experiment with OVCAR-5 ovarian was more than 100 µM each time. Besides, the TGI with K-562 leukemia and in the experiment with HT29 colon was more than 100 µM each time.
Consider `CC(=O)Oc1c(OC(C)C)cc(=O)n2ccsc12`, for which the TGI with SNB-19 CNS, with SK-MEL-5 melanoma, in the experiment with EKVX NSCLC, in the experiment on SF-295 CNS, in the experiment with OVCAR-5 ovarian and in the experiment with K-562 leukemia was more than 100 µM throughout. For the same compound, the TGI with HT29 colon was more than 100 µM; with HL-60(TB) leukemia it was 58.7 µM.
For `COC(=O)C1CCC(=S)N1C(C)=O` (stereo not drawn), the TGI with SNB-19 CNS, with SK-MEL-5 melanoma, in the experiment on EKVX NSCLC, in the experiment with SF-295 CNS, in the experiment with OVCAR-5 ovarian and with K-562 leukemia was more than 100 µM in each case. In the experiment with HT29 colon, the TGI is more than 100 µM.
As for `Cc1cccc2c1Oc1ncccc1C2NC(=O)CN(C)C` (stereo not drawn), the TGI with SNB-19 CNS, in the experiment on EKVX NSCLC, in the experiment with SF-295 CNS, in the experiment with OVCAR-5 ovarian, with K-562 leukemia and in the experiment on HT29 colon was more than 10 µM throughout. Further, the TGI in the experiment on HL-60(TB) leukemia was more than 10 µM.
As for `Nc1nc(Nc2cc(F)c(Cl)c(F)c2)cc(=O)[nH]1`, the TGI in the experiment on SNB-19 CNS, with SK-MEL-5 melanoma, with T-47D breast, in the experiment on EKVX NSCLC, with SF-295 CNS and in the experiment on OVCAR-5 ovarian was more than 100 µM each time. In addition, the TGI in the experiment with HT29 colon and with HL-60(TB) leukemia was more than 100 µM in each case.
Regarding `COc1c(-c2nc3nc(N4CCN(C)CC4)ccc3[nH]2)cc(OC)c2c1nc(CCl)n2C`, the TGI is more than 100 µM in the experiment on SNB-19 CNS; 38.9 µM with T-47D breast; 39.2 µM with EKVX NSCLC; more than 100 µM in the experiment on SF-295 CNS; 56.1 µM in the experiment on OVCAR-5 ovarian; more than 100 µM in the experiment on K-562 leukemia. In addition, the TGI in the experiment with HT29 colon came to 32.9 µM; in the experiment on HL-60(TB) leukemia it was 53.5 µM.
For `COc1ccc(NC(=S)Nc2cccc(C)n2)cc1`, the TGI in the experiment on SNB-19 CNS, with SK-MEL-5 melanoma, in the experiment on T-47D breast, with EKVX NSCLC, in the experiment on SF-295 CNS and in the experiment on K-562 leukemia was more than 100 µM throughout. Further, the TGI in the experiment on HT29 colon and in the experiment on HL-60(TB) leukemia was more than 100 µM in each case.
Take `Nc1nc(N)c2ncn(Cc3ccccc3)c2n1`: the TGI in the experiment with SNB-19 CNS, in the experiment with SK-MEL-5 melanoma, with T-47D breast, with EKVX NSCLC, in the experiment on SF-295 CNS and in the experiment on OVCAR-5 ovarian was more than 100 µM each time. In the experiment on HT29 colon, this compound showed a TGI of more than 100 µM.
